Experimental findings from patent publication US20250052678A1, “EVALUATION METHOD, EVALUATION DEVICE, AND INFORMATION PROCESSING PROGRAM” (HAMAMATSU PHOTONICS K.K., priority 2021, published 2025) are described below.

Test [1] has as its system Human liver cancer-derived cells (HepG2) cell aggregates. Briefly: Lipid droplet formation in HepG2 cell aggregates, refractive index distribution measuring method A2 (Example 1). It counts as cell-based. The settings on record: sodium oleate 0.5 mM, one day. On the procedure: Human liver cancer-derived cells (HepG2) were cultured for one day in a cell culture vessel (“EZSPHERE” manufactured by AGC-Techno Glass Co., Ltd.) having low-cell-adhesive compartments to prepare cell aggregates. The low-cell-adhesive compartments are provided with a low-protein-adhesive coat. Cell aggregates were formed in a DMEM medium containing 10% fetal bovine serum in the low-cell-adhesive compartments. A portion of the cell aggregates was cultured for one day in a DMEM medium containing 1% fatty acid-free bovine serum albumin instead of fetal bovine serum, with addition of sodium oleate to a final concentration of 0.5 mM, to induce formation of lipid droplets. The remaining portion of the cell aggregates was cultured for an additional day in a DMEM medium containing 10% fetal bovine serum without the addition of oleic acid (control). […] In the obtained refractive index distribution data, a region where the refractive index (n) was greater than 1.337 was determined as a cell aggregate region. […] A region having a refractive index (n) of greater than 1.375 was determined as a lipid droplet region. The area of the lipid droplet region present in the cell aggregate region of interest was measured.

The test system of test [2] is HepG2 cell aggregate (fatty liver model). Briefly: Lipid droplet volume ratio by distance from center of gravity in HepG2 cell aggregates, measuring method C (Example 2). It counts as cell-based, Human. On the procedure:
Preparation of cell aggregates, homogenization, and induction of lipid droplet formation were carried out in the same manner as in Example 1. The refractive index distribution data was evaluated in accordance with Embodiment T3 (FIG. 42). The refractive index distribution data was obtained by the refractive index distribution measuring method C. In the obtained refractive index distribution data, the center of gravity C was calculated, and the refractive index distribution data was evaluated based on distances from the center of gravity C. It was divided into concentric circles at intervals of 2.5 μm from the center of gravity C, and the ratio of the volume of lipid droplets present therein was calculated. The lipid droplet region was set as a region having a refractive index n>1.37, cell region of spheroid as a region having a refractive index n>1.34 and a medium region as a region having a refractive index n≤1.34 and the calculation was carried out. The results of the cell aggregate of the oleic acid-treated HepG2 (fatty liver model) and the control (without oleic acid) were compared.

SMILES strings stand for the structures.

With `CCCCCCCC/C=C\CCCCCCCC(=O)O` [oleic acid], the “formation of lipid droplets (structures with high refractive index)” value in test [1] (FIG. 41B) is “induced the formation of lipid droplets”. The “area of the lipid droplet region per cell aggregate relative to control (without oleic acid)” value in test [1] (lipid droplet region n>1.375, aggregates of maximum diameter 50 to 100 μm) worked out at 2.75 times. In addition, the “ratio of the volume of lipid droplets versus control (without oleic acid)” value in test [2] (concentric circles at 2.5 μm intervals from center of gravity C, lipid droplet region n>1.37) is “greater ratio of the volume of lipid droplets”. Moreover, the “distance from the center of gravity where many lipid droplets exist” value in test [2] (oleic acid-treated and control alike) is given as “about 20 μm”.
